Laboratory results taken from patent US9814727B2, “Piperazine phenothiazine derivatives for treating spasticity” (UNIVERSITE D'AIX-MARSEILLE, priority 2014, dated 2017).

Columns and labels:
KCC2 = assay: FluxOR fluorescence based thallium (Tl+) influx assay on KCC2-expressing HEK293 cells; type: cell-based; conditions: for effect on KCC2 activity, normalized to the maximal effect obtained with compound 1: 30 μM, HEK KCC2 cells, 15 minutes incubation
Procedure: Wild-type or KCC2-expressing Human Embryonic Kidney (HEK) 293 cells (provided by Prof. Eric Delpire Department of Anesthesiology, Vanderbilt University Medical Center, Nashville, Tenn.) were grown up to 80-90% confluence in DMEM/Ham's F-12 (1:1) (Life technologies, Carlsbad, Calif., USA) supplemented with 10% FBS (Life technologies), 50 units/mL penicillin, and 50 µg/mL streptomycin (Life technologies). KCC2-expressing clones were under puromycin selection (20 μg/ml, Life technologies).
The FluxOR™ potassium ion channel assay (Life Technologies Carlsbad, Calif., USA) was performed as outlined in the product information sheet and an earlier published study (Delpire et al., 2009, Proc. Natl. Acad. Sci. USA, 106, 5383-88) to assess KCC2 activity, and adapted to semi-automated high throughput screening. The experiment was performed in the presence of ouabain 200 μM and bumetanide 10 μM in all buffers to block the Na^+/K^+ pump and NKCC1 cotransporters, respectively. Briefly, cells in suspension were incubated in the loading buffer containing the dye at room temperature for 90 min (1/2000 dilution of FluxOR reagent) at the density of 100.000 cells/75 μl, then centrifugated and resuspended in Assay buffer at the same cell density. A number of 100.000 cells (75 μl) were manually handled in each well to the 96-wells black-walled, μclear-bottom plates (Greiner Bio-One, Monroe, N.C., USA) and 5 μl of chemical compounds 1-8 at different concentrations in PBS 1% DMSO (5, 30 and 50 μM) were added to the plates using the Biomek® NX Laboratory automation workstation (Beckman Coulter, Villepinte, France). After 15 minutes incubation, baseline fluorescent signal was measured with the Polarstar omega microplate reader (490 nm excitation and 520 nm emission, BMG Labtech). Then 20 μL per well of 5× thallium stimulus buffer (final concentrations: Tl^+: 2 mM, K^+: 10 mM) was injected and fluorescent signal was read 30 minutes later.
For each plate, 2 columns were dedicated to controls (cell density range from 0.25 to 1.10^5 cells; loading buffer as blank; untreated or treated with NEM (33 μM, for 15 min) wild-type and KCC2-expressing HEK293 cells).
Baseline fluorescent value was subtracted from the fluorescent value measured 30 min after stimulus buffer injection for each well, and this difference was normalized to the number of cells. […] Values converted to percentages such that the maximum of ratio is 100%.

HEK cells = assay: PrestoBlue cell viability assay (cytotoxicity); type: cell-based, Human; conditions: 30 μM
Procedure: Cytotoxicity were evaluated with fluorescent viability assay on HEK cells lines incubated 1 h with several concentrations of drugs. TC50: Toxic Concentration for 50% of the population.
After stimulus buffer induced signal acquisition, PrestoBlue® Cell Viability Reagent (Life technologies), a cell permeable resazurin-based solution was used according to manufacturer procedure as a cell viability indicator (Excitation/Emission (nm): 535-560/590-615).

Structure (SMILES)	effect on KCC2 activity, normalized to the maximal effect obtained with compound 1 (KCC2)	specific activation of KCC2 across a dose range (KCC2; HEK KCC2 compared to WT HEK cells, non-cytotoxic dose range)	cytotoxicity (HEK cells)
OCCN1CCN(CCCN2c3ccccc3Sc3ccc(Cl)cc32)CC1 [compound 1, 2-[4-[3-(2-chloro-10H-phenothiazin-10-yl)propyl]piperazin-1-yl]ethanol]	100%	activate specifically KCC2 in a dose dependant manner	–
CCSc1ccc2c(c1)N(CCCN1CCN(C)CC1)c1ccccc1S2 [compound 8, 2-(ethylthio)-10-[3-(4-methylpiperazin-1-yl)propyl]-10H-phenothiazine]	–	–	cytotoxic
CN1CCN(CCCN2c3ccccc3Sc3ccccc32)CC1 [compound 7, 10-[3-(4-methylpiperazin-1-yl)propyl]-10H-phenothiazine]	55%	–	–
